# In patent US20180338918A1, “TEMSIROLIMUS LIPOSOME AND PREPARATION METHOD THEREOF” (JIANGSU TASLY DIYI PHARMACEUTICAL CO., LTD., priority 2017, published 2018):
# Experiments:
# [1] = Sulfobutyl ether-β-cyclodextrin inclusion of temsirolimus, appearance of the solution; assay type: physicochemical; conditions: 1 mg/mL temsirolimus; application amount of sulfobutyl ether-β-cyclodextrin 50%
# Procedure: The druggabilities of sulfobutyl ether-β-cyclodextrin inclusion complex, liposome, and fat emulsion were investigated. The drug loading was fixed at 1 mg/ml for parallel comparisons. The main study protocol and results were summarized as follows:
# Formula amount of sulfobutyl ether-β-cyclodextrin was weighed, and dissolved by adding quantum satis water for injection, and setting the volume thereof to 100 mL; formula amount of temsirolimus was weighed, added into the aqueous solution of sulfobutyl ether-β-cyclodextrin, and stirred them at room temperature for 2 h.
# Formula amount of sulfobutyl ether-β-cyclodextrin was weighed, dissolved by adding quantum satis water for injection to give an aqueous phase; formula amounts of temsirolimus and organic vehicle (anhydrous ethanol, or propanediol, or PEG4000) were weighed, dissolved by water-bath ultrasound to give an organic phase; the organic phase was poured into the aqueous phase with stirring, and mixed uniformly, and setting the volume thereof to full volume with water for injection, and thus the formulations were obtained.
# [2] = Solubility of temsirolimus in common oils for injection (medium chain oil, soybean oil); assay type: physicochemical; conditions: for Dissolution state: 30 min
# Excerpt: Investigation of the solubility of temsirolimus in common oils for injection (medium chain oil, soybean oil)
# [3] = background statement; cited from earlier work
# mice = conditions: injected via tail vein of mice, compared with Tween 80; cited from earlier work
Inclusion of temsirolimus by sulfobutyl ether-β-cyclodextrin [1],"Dissolution state ([2]; Medium chain oil, 10 mg/g, 60° C.)","Dissolution state ([2]; Medium chain oil, 10 mg/g, 70° C.)","Dissolution state ([2]; Medium chain oil, 10 mg/g, 80° C.)","Dissolution state ([2]; Medium chain oil, 20 mg/g, 60° C.)","Dissolution state ([2]; Medium chain oil, 20 mg/g, 70° C.)","Dissolution state ([2]; Medium chain oil, 20 mg/g, 80° C.)","Dissolution state ([2]; Medium chain oil, 30 mg/g, 60° C.)","Dissolution state ([2]; Medium chain oil, 30 mg/g, 70° C.)","Dissolution state ([2]; Medium chain oil, 30 mg/g, 80° C.)","Dissolution state ([2]; Medium chain oil, 40 mg/g, 60° C.)","Dissolution state ([2]; Medium chain oil, 40 mg/g, 70° C.)","Dissolution state ([2]; Medium chain oil, 40 mg/g, 80° C.)","Dissolution state ([2]; Soybean oil, 10 mg/g, 60° C.)","Dissolution state ([2]; Soybean oil, 10 mg/g, 70° C.)","Dissolution state ([2]; Soybean oil, 10 mg/g, 80° C.)",Solubilities in the medium chain oil and soybean oil ([2]; summary in words),Molecule,Solubility in water [3],Acute toxicity (mice)
cannot be included,Severe,Severe,Severe,Severe,Severe,Severe,Severe,Severe,Severe,Severe,Severe,Severe,Severe,Severe,Severe,poor,"CO[C@H]1C[C@@H]2CC[C@@H](C)[C@@](O)(O2)C(=O)C(=O)N2CCCC[C@H]2C(=O)O[C@H]([C@H](C)C[C@@H]2CC[C@@H](OC(=O)C(C)(CO)CO)[C@H](OC)C2)CC(=O)[C@H](C)/C=C(\C)[C@@H](O)[C@@H](OC)C(=O)[C@H](C)C[C@H](C)/C=C/C=C/C=C/1C [temsirolimus, 42-bis(hydroxymethyl) propionate of sirolimus]",almost insoluble in water,–
–,–,–,–,–,–,–,–,–,–,–,–,–,–,–,–,–,polyethylene glycol stearate 15,–,"great, even greater than that of Tween 80"
